From patent EP2064211B1, “IMIDAZO[1,2-A]PYRIDINE HYDROXYMATE COMPOUNDS THAT ARE INHIBITORS OF HISTONE DEACETYLASE” (MEI Pharma, Inc., priority 2006, dated 2008)

Columns and labels:
HDAC1 enzyme = target: T1, HDAC1 enzyme (Homo sapiens, UniProt Q13547); test: In vitro HDAC assay for determination of IC50 values (BIOMOL fluorescent-based HDAC activity assay); format: biochemical; settings: recombinant GST-HDAC1, 500 uM Flur de lys substrate, room temperature 2 h; read-out: IC50 (HDAC 1)
T1 construct: Amplification of human HDAC1 coding region from this cDNA library was cloned separately into the baculovirus expression pDEST20 vector; made in house; host or cells: SF9 insect cells (baculovirus, pDEST20 vector)
T1 sequence (Q13547 whole entry): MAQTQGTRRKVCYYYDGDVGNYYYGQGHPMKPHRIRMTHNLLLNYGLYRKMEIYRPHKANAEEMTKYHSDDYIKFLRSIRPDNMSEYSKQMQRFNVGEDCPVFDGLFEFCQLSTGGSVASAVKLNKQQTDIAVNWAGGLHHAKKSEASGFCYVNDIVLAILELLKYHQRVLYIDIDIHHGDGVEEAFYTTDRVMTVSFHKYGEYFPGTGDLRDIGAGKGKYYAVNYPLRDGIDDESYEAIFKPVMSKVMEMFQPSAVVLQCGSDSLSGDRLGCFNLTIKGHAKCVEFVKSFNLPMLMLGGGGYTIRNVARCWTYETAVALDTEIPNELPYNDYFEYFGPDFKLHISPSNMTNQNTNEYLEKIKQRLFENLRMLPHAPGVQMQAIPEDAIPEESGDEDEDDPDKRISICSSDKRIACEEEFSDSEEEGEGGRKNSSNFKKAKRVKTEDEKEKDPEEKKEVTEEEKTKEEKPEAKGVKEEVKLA
Experimental: Human cDNA library was prepared using cultured SW620 cells. Amplification of human HDAC1 coding region from this cDNA library was cloned separately into the baculovirus expression pDEST20 vector (GATEWAY Cloning Technology, Invitrogen Pte Ltd). The pDEST20-HDAC1 construct was confirmed by DNA sequencing. Recombinant baculovirus was prepared using the Bac-To-Bac method following the manufacturer's instruction (Invitrogen Pte Ltd).
Expression of GST-HDAC1 was done by infecting SF9 cells (Invitrogen Pte Ltd) with pDEST20-HDAC1 baculovirus at MOI=1 for 48 h. Soluble cell lysate was incubated with pre-equilibrated Glutathione Sepharose 4B beads (Amersham) at 4°C for 2 h. The beads were washed with PBS buffer for 3 times. The GST-HDAC1 protein was eluted by elution buffer containing 50 mM Tris, pH8.0, 150mM NaCl, 1% Triton X-100 and 10mM or 20mM reduced Glutathione. The purified GST-HDAC1 protein was dialyzed with HDAC storage buffer containing 10mM Tris, pH7.5, 100mM NaCl and 3mM MgCl2. 20% Glycerol was added to purified GST-HDAC1 protein before storage at -80°C.
The assay has been carried out in 96 well format and the BIOMOL fluorescent-based HDAC activity assay has been applied. The reaction composed of assay buffer, containing 25 mM Tris pH 7.5, 137 mM NaCl, 2.7 mM KCl, 1 mM MgCl2, 1 mg/ml BSA, tested compounds, an appropriate concentration of HDAC1 enzyme, 500 uM Flur de lys generic substrate for HDAC1 enzyme and subsequently was incubated at room temperature for 2 h. Flur de lys Developer was added and the reaction was incubated for 10 min. Briefly, deacetylation of the substrate sensitizes it to the developer, which then generates a fluorophore. The fluorophore is excited with 360 nm light and the emitted light (460 nm) is detected on a fluorometric plate reader (Tecan Ultra Microplate detection system, Tecan Group Ltd.).
The analytical software, Prism 4.0 (GraphPad Software Inc) has been used to generate IC50 from a series of data. IC50 is defined as the concentration of compound required for 50% inhibition of HDAC enzyme activity.

Colo205 cells = test: Cell-based proliferation assay for determination of GI50 values (CyQUANT); parameters: species or system Human; settings: Homo sapiens, COLO 205, compound treatment 96 h, concentration for 50% inhibition of cell growth, read-out: Gl50 (Colo205)
Experimental: Human cancer cell lines (e.g. Colo205) were obtained from ATCC. Colo205 cells were cultivated in RPMI 1640 containing 2 mM L-Glutamine, 5% FBS, 1.0 mM Na Pyruvate. Colo205 cells were seeded in 96-wells plate at 5000 cells per well. The plates were incubated at 37°C, 5% CO2, for 24 h. Cells were treated with compounds at various concentrations for 96 h. Cell growth was then monitored using CyQUANT® cell proliferation assay (Invitrogen Pte Ltd). Dose response curves were plotted to determine Gl50 values for the compounds using XL-fit (ID Business Solution, Emeryville, CA). Gl50 is defined as the concentration of compound required for 50% inhibition of cell growth.

[1] = Measurement of microsomal stability; format: in vitro ADME; settings: pooled human liver microsomes 1.0 mg/ml, test compound 5 µM, pH 7.4, incubation up to 60 min
Experimental: Metabolic stability measurements in vitro using liver microsomes aids in the prediction of in vivo hepatic clearance and compound stability towards phase I biotransformation reactions mediated by P450 isozymes.
Pooled human liver microsome (HLM) preparation was purchased from BD Gentest (BD BioSciences). The incubations consisted of test compound (5 µM) or control compound (Verapamil), NADPH-generating system solution A (25 mM NADP^+, 66 mM glucose-6-phosphate, 66 mM MgCl2 in H2O), NADPH-generating system solution B (40 U/ml glucose-6-phosphate dehydrogenase in 5 mM sodium citrate) and 1.0 mg/ml microsomal protein, respectively, in 100 mM potassium phosphate buffer (pH 7.4). Samples are incubated for 0, 5, 15, 30, 45, 60min. Reaction is terminated with ice-cold 80% acetonitrile and 20% DMSO. Samples are subsequently centrifuged at 4°C for 15 min at 2,000 rpm. 100 µL of the supernatant is transferred to the LC-MS plate for analysis. Before quantitative analysis, the compound is tuned in the LC/MS machine to get the optimized MS condition. Liquid chromatography is performed on a Luna C18 column (Phenomenex U.S.A, Torrance, CA) (2x50mm, […]). Percentage (%) remaining of compound (by area) of each time point is calculated with respect to time 0. Plot %remaining against time (min) to obtain the curve and use the Prism software to obtain the T1/2. […]

Work on `CCCCN(CC)Cc1c(C)nc2cc(C=CC(=O)NO)ccn12` [Compound 29, 3-{3-[(Butyl-ethyl-amino)-methyl]-2-methyl-imidazo[1,2-a]pyridin-7-yl}-N-hydroxy-acrylamide] yielded an IC50 (HDAC1 enzyme) of 0.03 µM, an IC50 (Colo205 cells) of 0.18 µM and a half-life at 5 µM [1] of 59 min.
Work on `CCCCc1nc2cc(C=CC(=O)NO)ccn2c1CN(CC)CCC(C)C` [Compound 42, 3-(2-Butyl-3-{[ethyl-(3-methyl-butyl)-amino]-methyl}-imidazo[1,2-a]pyridin-7-yl)-N-hydroxy-acrylamide] yielded an IC50 (HDAC1 enzyme) of 0.02 µM and an IC50 (Colo205 cells) of 0.09 µM.
Work on `CCCCc1nc2cc(C=CC(=O)NO)ccn2c1CN(CC)CC(C)(C)C` [Compound 43, 3-(2-Butyl-3-{[(2,2-dimethyl-propyl)-ethyl-amino]-methyl}-imidazo[1,2-a]pyridin-7-yl)-N-hydroxy-acrylamide] yielded an IC50 (HDAC1 enzyme) of 0.16 µM and an IC50 (Colo205 cells) of 0.95 µM.
`CCCCc1nc2cc(C=CC(=O)NO)ccn2c1CN(CC)CC(C)CCC` (stereo not shown) [Compound 44, 3-(2-Butyl-3-{[ethyl-(2-methyl-pentyl)-amino]-methyl}-imidazo[1,2-a]pyridin-7-yl)-N-hydroxy-acrylamide] showed an IC50 (HDAC1 enzyme) of 0.08 µM and an IC50 (Colo205 cells) of 0.49 µM.
With `CCCCc1nc2cc(C=CC(=O)NO)ccn2c1CN(CC)CCC(C)(C)C` [Compound 45, 3-(2-Butyl-3-{[(3,3-dimethyl-butyl)-ethyl-amino]-methyl)-imidazo[1,2-a]pyridin-7-yl)-N-hydroxy-acrylamide] the IC50 (HDAC1 enzyme) was 0.03 µM and the IC50 (Colo205 cells) was 0.14 µM.
For `CCCCc1nc2cc(C=CC(=O)NO)ccn2c1CN(CC)CC(CC)CC` [Compound 46, 3-(2-Butyl-3-{[ethyl-(2-ethyl-butyl)-amino]-methyl}-imidazo[1,2-a]pyridin-7-yl)-N-hydroxy-acrylamide], the IC50 (HDAC1 enzyme) was 0.15 µM and the IC50 (Colo205 cells) was 0.39 µM.
`CCCCc1nc2cc(C=CC(=O)NO)ccn2c1CN(CC)CCC(C)CC(C)(C)C` (stereo not shown) [Compound 47, 3-(2-Butyl-3-{[ethyl-(3,5,5-trimethyl-hexyl)-amino]-methyl}-imidazo[1,2-a]pyridin-7-yl)-N-hydroxy-acrylamide] showed an IC50 (HDAC1 enzyme) of 0.2 µM and an IC50 (Colo205 cells) of 0.53 µM.
In the case of `CCN(CCC(C)(C)C)Cc1c(C)nc2cc(C=CC(=O)NO)ccn12` [Compound 50, 3-(3-{[(3,3-Dimethyl-butyl)-ethyl-amino]-methyl}-2-methyl-imidazo[1,2-a]pyridin-7-yl)-N-hydroxy-acrylamide], the IC50 (HDAC1 enzyme) is reported as 0.05 µM, the IC50 (Colo205 cells) is reported as 0.16 µM and the half-life at 5 µM [1] is reported as 45 min.
For `CCCc1nc2cc(C=CC(=O)NO)ccn2c1CN(CC)CCC(C)C` [Compound 51, 3-(3-{[Ethyl-(3-methyl-butyl)-amino]-methyl}-2-propyl-imidazo[1,2-a]pyridin-7-yl)-N-hydroxy-acrylamide], the IC50 (HDAC1 enzyme) was 0.03 µM and the IC50 (Colo205 cells) was 0.08 µM.
With `CCCc1nc2cc(C=CC(=O)NO)ccn2c1CN(CC)CCC(C)(C)C` [Compound 52, 3-(3-{[(3,3-Dimethyl-butyl)-ethyl-amino]-methyl}-2-propyl-imidazo[1,2-a]pyridin-7-yl)-N-hydroxy-acrylamide] the IC50 (HDAC1 enzyme) was 0.02 µM and the IC50 (Colo205 cells) was 0.07 µM.
Work on `CCCCCc1nc2cc(C=CC(=O)NO)ccn2c1CNC(C)(C)C` [Compound 53, 3-[3-(tert-Butylamino-methyl)-2-pentyl-imidazo[1,2-a]pyridin-7-yl]-N-hydroxy-acrylamide] yielded an IC50 (HDAC1 enzyme) of 0.02 µM and an IC50 (Colo205 cells) of 0.07 µM.
`CCCCCc1nc2cc(C=CC(=O)NO)ccn2c1CN(CC)CCCC` [Compound 54, 3-{3-[(Butyl-ethyl-amino)-methyl]-2-pentyl-imidazo[1,2-a]pyridin-7-yl}-N-hydroxy-acrylamide] showed an IC50 (HDAC1 enzyme) of 0.04 µM and an IC50 (Colo205 cells) of 0.15 µM.
In the case of `CCCCCc1nc2cc(C=CC(=O)NO)ccn2c1CN(CC)CCC(C)C` [Compound 55, 3-(3-{(Ethyl-(3-methyl-butyl)-amino]-methyl}-2-pentyl-imidazo[1,2-a]pyridin-7-yl)-N-hydroxy-acrylamide], the IC50 (HDAC1 enzyme) is reported as 0.03 µM and the IC50 (Colo205 cells) is reported as 0.14 µM.
With `CCCCCc1nc2cc(C=CC(=O)NO)ccn2c1CN(CC)CCC(C)(C)C` [Compound 56, 3-(3-{[(3,3-Dimethyl-butyl)-ethyl-amino]-methyl}-2-pentyl-imidazo[1,2-a]pyridin-7-yl)-N-hydroxy-acrylamide] the IC50 (HDAC1 enzyme) was 0.03 µM and the IC50 (Colo205 cells) was 0.15 µM.
Work on `CCCCN(CC)Cc1c(CCC)nc2cc(C=CC(=O)NO)ccn12` [Compound 57, 3-{3-[(Butyl-ethyl-amino)-methyl]-2-propyl-imidazo[1,2-a]pyridin-7-yl}-N-hydroxy-acrylamide] yielded an IC50 (HDAC1 enzyme) of 0.04 µM and an IC50 (Colo205 cells) of 0.16 µM.
With `CC(C)Cc1nc2cc(C=CC(=O)NO)ccn2c1CNC(C)(C)C` [Compound 58, 3-[3-(tert-Butylamino-methyl)-2-isobutyl-imidazo[1,2-a]pyridin-7-yl]-N-hydroxy-acrylamide] the IC50 (HDAC1 enzyme) was 0.05 µM and the IC50 (Colo205 cells) was 0.21 µM.
For `CCCCN(CC)Cc1c(CC(C)C)nc2cc(C=CC(=O)NO)ccn12` [Compound 59, 3-{3-[(Butyl-ethyl-amino)-methyl]-2-isobutyl-imidazo[1,2-a]pyridin-7-yl}-N-hydroxy-acrylamide], the IC50 (HDAC1 enzyme) was 0.04 µM and the IC50 (Colo205 cells) was 0.15 µM.
Work on `CCN(CCC(C)(C)C)Cc1c(CC(C)C)nc2cc(/C=C/C(=O)NO)ccn12` [Compound 61] yielded an IC50 (HDAC1 enzyme) of 0.03 µM and an IC50 (Colo205 cells) of 0.17 µM.
For `CCc1nc2cc(C=CC(=O)NO)ccn2c1CNC(C)(C)C` [Compound 62, 3-[3-(tert-Butylamino-methyl)-2-ethyl-imidazo[1,2-a]pyridin-7-yl]-N-hydroxy-acrylamide], the IC50 (HDAC1 enzyme) was 0.03 µM and the IC50 (Colo205 cells) was 0.26 µM.
With `CCCCN(CC)Cc1c(CC)nc2cc(C=CC(=O)NO)ccn12` [Compound 63, 3-{3-[(Butyl-ethyl-amino)-methyl]-2-ethyl-imidazo[1,2-a]pyridin-7-yl}-N-hydroxy-acrylamide] the IC50 (HDAC1 enzyme) was 0.05 µM, the IC50 (Colo205 cells) was 0.18 µM and the half-life at 5 µM [1] was > 60 min.
With `CCc1nc2cc(C=CC(=O)NO)ccn2c1CN(CC)CCC(C)C` [Compound 64, 3-(2-Ethyl-3-{[ethyl-(3-methyl-butyl)-amino]-methyl}-imidazo[1,2-a]pyridin-7-yl)-N-hydroxy-acrylamide] the IC50 (HDAC1 enzyme) was 0.02 µM, the IC50 (Colo205 cells) was 0.1 µM and the half-life at 5 µM [1] was > 60 min.
In the case of `CCCCN(CC)Cc1c(CCC(C)C)nc2cc(C=CC(=O)NO)ccn12` [Compound 66, 3-[3-[(Butyl-ethyl-amino)-methyl]-2-(3-methyl-butyl)-imidazo[1,2-a]pyridin-7-yl]-N-hydroxy-acrylamide], the IC50 (HDAC1 enzyme) is reported as 0.04 µM and the IC50 (Colo205 cells) is reported as 0.16 µM.
With `CCN(CCC(C)C)Cc1c(CCC(C)C)nc2cc(/C=C/C(=O)NO)ccn12` [Compound 67, 3-[3-{[Ethyl-(3-methyl-butyl)-amino]-methy}-2-(3-methyl-butyl)-imidazo[1,2-a]pyridin-7-yl]-N-hydroxy-acrylamide] the IC50 (HDAC1 enzyme) was 0.03 µM and the IC50 (Colo205 cells) was 0.13 µM.
`CCN(CCC(C)(C)C)Cc1c(CCC(C)C)nc2cc(C=CC(=O)NO)ccn12` [Compound 68, 3-[3-{[(3,3-Dimethyl-butyl)-ethyl-amino]-methyl}-2-(3-methyl-butyl)-imidazo[1,2-a]pyridin-7-yl]-N-hydroxy-acrylamide] gave an IC50 (HDAC1 enzyme) of 0.04 µM and an IC50 (Colo205 cells) of 0.13 µM.
